Experimental findings from patent US7820699B2, “Cyclic amines” (Hoffmann-La Roche Inc., priority 2005, dated 2010) are described below.

The target of the assay is T1, human factor Xa (Homo sapiens, UniProt P00742).
T1 construct: purchased Enzyme Research Laboratories
T1 sequence (P00742 235-488 limits assumed): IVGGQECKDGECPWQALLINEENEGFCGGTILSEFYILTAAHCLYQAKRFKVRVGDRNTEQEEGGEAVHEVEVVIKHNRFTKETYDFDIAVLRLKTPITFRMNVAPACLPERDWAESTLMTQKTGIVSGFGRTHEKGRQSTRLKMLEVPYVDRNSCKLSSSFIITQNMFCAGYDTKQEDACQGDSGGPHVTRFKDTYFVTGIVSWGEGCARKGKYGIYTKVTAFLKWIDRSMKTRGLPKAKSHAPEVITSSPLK
T1 sequence (P00742 41-179 partner limits assumed): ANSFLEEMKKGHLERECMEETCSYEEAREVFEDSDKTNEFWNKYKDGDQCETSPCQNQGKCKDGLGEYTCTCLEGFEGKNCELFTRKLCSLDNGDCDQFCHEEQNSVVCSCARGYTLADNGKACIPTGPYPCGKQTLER
The experiment in a line: chromogenic peptide substrate assay, inhibition of factor Xa. It is filed as biochemical. Conditions: human factor Xa 3 nM, chromogenic substrate S-2222, pH 7.8, room temperature; Ki from IC50 by Cheng-Prusoff. Here is the method: Factor Xa activity was measured spectrophotometrically in microtiter plates in a final volume of 150 μl using the following conditions: Inhibition of human factor Xa (Enzyme Research Laboratories) was tested at an enzyme concentration of 3 nM using the chromogenic substrate S-2222 (Chromogenix AB, Molndal, Sweden) at […]. The reaction kinetics of the enzyme and the substrate were linear with both time and the enzyme concentration. The inhibitors were dissolved in DMSO and tested at various concentrations up to 100 μM. The inhibitors were diluted using HNPT buffer consisting of HEPES 100 mM, NaCl 140 mM, PEG 6000 0.1% and Tween 80 0.02%, pH 7.8. The cleavage of S-2222 by human factor Xa was followed at 405 nm for 5 minutes at room temperature. The velocity of the reaction was determined by the autoreader from the slope of the linear regression fit to 7 time points (1 minute). The initial velocity for each inhibitor concentration was determined by the slope of at least 4 time points in the linear phase by a linear regression fit […]. Apparent dissociation constants Ki were calculated according to Cheng and Prusoff [Cheng, Y. C.; Prusoff, W. H. Relationship between the inhibition constant (Ki) and the concentration of the inhibitor that causes 50 percent inhibition (IC50) of an enzyme reaction. Biochem. Pharmacol. 1973, 22, 3099-3108.] based on the IC50 and the respective Km, determined previously (Ki=IC50/(1+S/Km)). The Km for the substrate used was determined under the conditions of the test with at least 5 substrate concentrations ranging from 0.5 to 15 times Km. [Lottenberg R, Hall J A, Blinder M, Binder E P, Jackson C M., The action of thrombin on peptide p-nitroanilide substrates. Substrate selectivity and examination of hydrolysis under different reaction conditions. Biochim Biophys Acta. 1983 Feb. 15; 742(3):539-57]. According to Eadie [Eadie G. S. The inhibition of cholinesterase by physostigmine and prostigmine. J. Biol. Chem. 1942, 146, 85-93.], the Km for S-2222 amounted to 613 μM.
`CC(C(=O)Nc1ccc(-n2ccccc2=O)cc1F)N1CC[C@@H](NC(=O)c2ccc(Cl)s2)C1` (stereo partly drawn) [Example 6, 5-chloro-thiophene-2-carboxylic acid ((R)-1-{1-[2-fluoro-4-(2-oxo-pyridin-1-yl)-phenylcarbamoyl]-ethyl}-pyrrolidin-3-yl)-amide]: the Ki (in general, a measure of affinity in units of concentration, obtained from inhibition or displacement) was 0.017 µM.
For `CO[C@H]1CN(CC(=O)Nc2ccc(N3CCOCC3=O)cc2F)C[C@@H]1NC(=O)c1ccc(Cl)s1` [Example 26, 5-chloro-thiophene-2-carboxylic acid ((3S,4S)-1-{[2-fluoro-4-(3-oxo-morpholin-4-yl)-phenylcar-bamoyl]-methyl}-4-methoxy-pyrrolidin-3-yl)-amide], affinity was put at a Ki of 0.014 µM.
Next, `O=C(NC[C@H]1CCN(C(=O)Nc2ccc(-n3ccccc3=O)cc2F)C1)c1ccc(Cl)s1` [Example 54, (R)-3-{[(5-chloro-thiophene-2-carbonyl)-amino]-methyl}-pyrrolidine-1-carboxylic acid[2-fluoro-4-(2-oxo-2H-pyridin-1-yl)-phenyl]-amide]: 0.013 µM; `O=C(NC[C@@H]1CN(C(=O)Nc2ccc(-n3ccccc3=O)cc2F)C[C@H]1C(F)(F)F)c1ccc(Cl)s1` [Example 77, (3R,4S)-3-{[(5-chloro-thiophene-2-carbonyl)-amino]-methyl}-4-trifluoromethyl-pyrrolidine-1-carboxy-lic acid[2-fluoro-4-(2-oxo-2H-pyridin-1-yl)-phenyl]-amide]: 0.008 µM; `CN(C1CN(C(=O)Nc2ccc(-n3ccccc3=O)cc2F)C[C@H]1CNC(=O)c1ccc(Cl)s1)S(C)(=O)=O` (stereo partly drawn) [Example 85, (R)-3-{[(5-chloro-thiophene-2-carbonyl)-amino]-methyl}-4-(methanesulfonyl-methyl-amino)-pyrrolidine-1-carboxylic acid[2-fluoro-4-(2-oxo-2H-pyridin-1-yl)-phenyl]-amide]: 0.012 µM.
